Reference: ChEMBL document CHEMBL3822386, “New sesquiterpene lactones, vernonilides A and B, from the seeds of Vernonia anthelmintica in Uyghur and their antiproliferative activities” (Bioorg Med Chem Lett, 2016)

What was measured:
Type in all cases: functional, cell-based
A549 = experiment: Antiproliferative activity against human A549 cells assessed as reduction in cell viability after 72 hrs by WST-8 assay; settings: A549, 72 h
HeLa = experiment: Antiproliferation activity against human HeLa cells assessed as reduction in cell viability after 72 hrs by WST-8 assay
MDA-MB-231 = experiment: Antiproliferation activity against human MDA-MB-231 cells assessed as reduction in cell viability after 72 hrs by WST-8 assay; settings: MDA-MB-231, 72 h

`C=C[C@@]12COC(=O)C(=C)[C@@H]1[C@H]1OC(=O)C(=C)[C@@H]1[C@@H](OC(=O)C(=C)CO)C2` [VERNODALIN] gave an IC50 (A549) of 0.4 µM, an IC50 (HeLa) of 0.2 µM and an IC50 (MDA-MB-231) of 0.3 µM.
In the case of `C=C(CO)C(=O)O[C@H]1CC(=C)[C@@H]2CC[C@@H](CO)[C@@H]2[C@H]2OC(=O)C(=C)[C@@H]21`, the IC50 (A549) is reported as 1 µM, the IC50 (HeLa) is reported as 0.1 µM and the IC50 (MDA-MB-231) is reported as 0.25 µM.
With `C=C[C@@]12COC(=O)C(=C)[C@@H]1[C@H]1OC(=O)C(=C)[C@@H]1[C@@H](O)C2` [VERNOLEPIN] the IC50 (A549) was 16.9 µM, the IC50 (HeLa) was 2.2 µM and the IC50 (MDA-MB-231) was 1.9 µM.
With `C=C[C@@]12COC(=O)C(=C)[C@@H]1[C@H]1OC(=O)C(=C)[C@@H]1[C@@H](OC(=O)C(=C)COC(C)=O)C2` the IC50 (A549) was 1.52 µM, the IC50 (HeLa) was 2.16 µM and the IC50 (MDA-MB-231) was 1.35 µM.
With `C=C[C@@]12COC(=O)C(=C)[C@@H]1[C@H]1OC(=O)C(=C)[C@@H]1[C@@H](OC(=O)C(=C)COCC)C2` the IC50 (A549) was 21.6 µM, the IC50 (HeLa) was 16.3 µM and the IC50 (MDA-MB-231) was 9.5 µM.
In the case of `C=C[C@]1(C)C[C@H](OC(=O)C(=C)COC(C)=O)[C@H]2C(=C)C(=O)O[C@@H]2[C@H]1C(=C)C=O`, the IC50 (A549) is reported as 2.95 µM, the IC50 (HeLa) is reported as 4.16 µM and the IC50 (MDA-MB-231) is reported as 3.2 µM.
Work on `C=C[C@]1(C)C[C@H](OC(=O)C(=C)CO)[C@H]2C(=C)C(=O)O[C@@H]2[C@H]1C(=C)C=O` yielded an IC50 (A549) of 0.7 µM, an IC50 (HeLa) of 0.4 µM and an IC50 (MDA-MB-231) of 0.35 µM.
